Source: BindingDB's records for doi:10.1021/jm00025a010 (Eli Lilly, 1995)
pIC50: −log10 of the molar value.

Each compound was assayed against T1, Gag-Pol polyprotein [588-1027]/[588-1147] (Human immunodeficiency virus 1, UniProt P04585) (assay: HIV-1 RT Assay). Details: not given.
T1 construct: 588-1027; 588-1147

| Compound | pIC50 |
| --- | --- |
| S=C(NCCc1cccnc1)Nc1nccs1 [1-[2-(pyridin-3-yl)ethyl]-3-1,3-thiazol-2-ylthiourea] | < 5.00 |
| S=C(NCCc1ccncc1)Nc1nccs1 [1-[2-(pyridin-4-yl)ethyl]-3-1,3-thiazol-2-ylthiourea] | < 5.00 |
| CCCCCCOc1cccc(CC/N=C(\S)Nc2nccs2)c1 [N-(2-(3-(Hexyloxy)phenethyl))-N -(2-thiazolyl)thiourea] | < 5.00 |

Same assay, conditions: pH 7.8; 37 °C

| Compound | pIC50 |
| --- | --- |
| CCc1csc(NC(=S)NCCc2c(F)cccc2F)n1 [N-(2-(2,6-Difluorophenyl)ethyl)-N -(2-(4-ethylthiazolyl))thiourea] | 8.26 |
| Cc1csc(NC(=S)NCCc2ccccc2)n1 [3-(4-methyl-1,3-thiazol-2-yl)-1-(2-phenylethyl)thiourea] | 7.00 |
| S=C(NCCc1ccccc1)Nc1ncccc1Br [N-(2-Phenethyl)-N -(2-(3-bromopyridyl))thiourea] | < 5.00 |
| O=C(O)c1csc(/N=C(\S)NCCc2ccccc2)n1 [2-{[(2-phenylethyl)carbamothioyl]amino}-1,3-thiazole-4-carboxylic acid] | < 5.00 |
| S=C(NCCc1ccccc1)Nc1cc[nH]n1 [N-(2-Phenethyl)-N -(3-pyrazolyl)thiourea] | < 5.00 |
